As a reminder, the IC50 is the point on the concentration scale where inhibition reaches its midpoint. Read a low IC50 as higher potency. A word on the melting point: it is the temperature, or range, at which the solid turns liquid.

Several values for one entry are separate records, joined by “and”; a condition that tells them apart may be missing. Equal values may be shown once.

Results on twelve compounds are retold here after patent US20050065118A1, “Organosulfur inhibitors of tyrosine phosphatases” (priority 2001, published 2005).

In one data set the target is T1, TC-PTP (Homo sapiens, UniProt P17706).
T1 construct: purchased NEB
T1 sequence (P17706 1-317 limits assumed): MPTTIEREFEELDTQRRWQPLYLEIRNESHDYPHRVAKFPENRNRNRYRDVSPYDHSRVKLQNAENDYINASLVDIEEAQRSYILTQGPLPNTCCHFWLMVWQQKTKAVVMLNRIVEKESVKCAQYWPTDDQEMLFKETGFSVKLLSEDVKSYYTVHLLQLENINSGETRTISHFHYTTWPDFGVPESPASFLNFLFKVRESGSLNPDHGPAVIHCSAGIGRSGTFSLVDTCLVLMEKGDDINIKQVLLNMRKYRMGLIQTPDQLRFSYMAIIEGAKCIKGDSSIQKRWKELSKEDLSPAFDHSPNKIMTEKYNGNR
The data set can be described thus: TC-PTP inhibition, pNPP tyrosine phosphatase assay. The class given is biochemical. Particulars: two values in a cell = two determinations. On the procedure: (§1) Alternatively, a pNPP assay can be used to screen compounds for tyrosine phosphatase inhibitory activity as follows: A 5× stock of pNPP (p-nitrophenol phosphate) substrate is prepared as 50 mM pNPP in assay buffer prepared as described above. Various tyrosine phosphatase solutions can be prepared as follows: • PTP-1B (SBI purified, 1 mg/mL) as a 1:250 dilution (to a final concentration of 4 μg/mL); • TC-PTP (NEB, 1000 units in 100 μL) as a 1:50 dilution (to a final concentration of 2U/10 μL (4 μg/mL)); • CD45 (Calbiochem, 20 μg, 400 units in 100 μL) as a 1:50 dilution (to a final concentration of 0.8U/10 μL (4 μg/mL)); • LAR (NEB, 1000 units in 200 μL) as a 1:75 dilution (to a final concentration of 0.7U/10 μL (4 μg/mL)); and • PTP-β (UBI, #14-350, 10,000 units, 40 μg/571 μL) as a 1:17.5 dilution (to a final concentration of 10U/10 μL (4 μg/mL));
(§2) The compound to be tested is prepared as 1:16.7 and 1:50 dilutions from stock in a total volume of […] to give final concentrations of 626 and 200 μM. The reaction mixtures are prepared in a 96-well microtiter plate (on ice) as 55 μL assay buffer, 5 μL of the diluted compound (to a final concentration of 31.3 and 10 μM), 20 μL of the pNPP substrate solution (to a final concentration of 10 mM) and 20 μL PTease in assay buffer. The reactants are mixed well, the plate placed in a water bath at 30° C. and incubated for 10 minutes. The reaction is then terminated by adding 100 μL of 2M K2CO3 per well, and the absorbance is measured at 405 nm by conventional means.

Another data set deals with T2, PTP-1B (Homo sapiens, UniProt P18031).
T2 sequence (P18031 1-435): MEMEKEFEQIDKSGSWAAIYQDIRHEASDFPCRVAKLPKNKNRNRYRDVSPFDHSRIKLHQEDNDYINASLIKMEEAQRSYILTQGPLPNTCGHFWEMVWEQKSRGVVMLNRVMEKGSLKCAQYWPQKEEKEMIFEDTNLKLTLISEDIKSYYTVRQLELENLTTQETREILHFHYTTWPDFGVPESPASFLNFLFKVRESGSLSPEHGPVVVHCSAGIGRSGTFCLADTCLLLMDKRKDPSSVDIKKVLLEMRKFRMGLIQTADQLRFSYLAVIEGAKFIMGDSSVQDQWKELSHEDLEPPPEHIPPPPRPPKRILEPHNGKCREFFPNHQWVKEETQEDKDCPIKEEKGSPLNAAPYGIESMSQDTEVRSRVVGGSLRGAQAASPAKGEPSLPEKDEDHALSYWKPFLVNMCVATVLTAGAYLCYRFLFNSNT
The data set can be described thus: PTP-1B inhibition, Malachite Green assay with pIRP substrate. The class given is biochemical. The protocol: The compounds of the present invention are evaluated for biological activity as inhibitors of PTP-1B using, for example, a Malachite Green assay with pIRP as a substrate. The pIRP substrate includes a phosphotyrosine residue, and PTP-1B cleaves the phosphate group from the tyrosine, yielding the peptide and phosphate. The rate of the enzymatic reaction is determined by measuring the phosphate released during the reaction.
The reactants for the assay include 20 mM Tris-HCl, pH 7.4, 2 mM EDTA (ethylaminediamine tetraacetic acid) and 2 mM DTT (dithiothreitol) as the assay buffer, and 1 mM pIRP in assay buffer (1 mg in 0.59 mL buffer) as the substrate stock. The Malachite Green solution is prepared by adding 30 μL of 1% Tween 20 to 1 mL of Malachite Green Solution A. The stock of each compound to be tested is made up as 10 mM in DMSO (dimethylsulfoxide).
The compound to be tested is prepared as 1:5, 1:15.8, 1:50 and 1:158 dilutions from stock in a total volume of […]. The reaction mixtures are prepared in a 96-well microtiter plate as 27.5 μL assay buffer, […] of the diluted compound (to a final concentration of 100, 32, 10 and 3.2 μM), 10 μL of the pIRP substrate solution (to a final concentration of 200 μM) and 10 μL PTPase in assay buffer. The reactants are mixed well, the plate placed in a water bath at 30° C. and incubated for 3 minutes. The reaction is then terminated by adding 100 μL of Malachite Green solution per well, color is allowed to develop for 15 minutes, and the A650 is measured by conventional means.
Unless otherwise indicated, this assay was used to determine activity for the selected compounds whose activity is recorded in the Table.

A further data set has as its target T3, CD-45 (Homo sapiens, UniProt P08575).
T3 construct: purchased Calbiochem
T3 sequence (P08575 609-1306 limits assumed): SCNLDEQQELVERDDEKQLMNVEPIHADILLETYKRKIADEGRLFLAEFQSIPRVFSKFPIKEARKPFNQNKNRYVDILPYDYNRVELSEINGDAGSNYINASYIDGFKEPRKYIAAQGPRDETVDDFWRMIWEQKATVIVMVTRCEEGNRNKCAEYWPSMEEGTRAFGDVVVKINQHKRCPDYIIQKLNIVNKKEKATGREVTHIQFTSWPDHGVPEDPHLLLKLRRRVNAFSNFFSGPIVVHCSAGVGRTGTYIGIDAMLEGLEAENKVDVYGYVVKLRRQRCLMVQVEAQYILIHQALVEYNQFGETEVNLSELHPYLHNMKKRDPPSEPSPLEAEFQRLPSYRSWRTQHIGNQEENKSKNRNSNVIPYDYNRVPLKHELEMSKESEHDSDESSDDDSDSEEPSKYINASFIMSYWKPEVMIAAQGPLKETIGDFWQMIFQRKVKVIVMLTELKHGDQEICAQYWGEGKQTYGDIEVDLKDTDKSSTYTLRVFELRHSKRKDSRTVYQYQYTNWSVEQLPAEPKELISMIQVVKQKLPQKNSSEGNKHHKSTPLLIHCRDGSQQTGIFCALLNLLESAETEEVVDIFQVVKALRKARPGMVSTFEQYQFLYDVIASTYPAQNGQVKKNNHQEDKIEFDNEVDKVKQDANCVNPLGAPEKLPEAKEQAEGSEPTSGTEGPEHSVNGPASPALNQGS
The data set is described as follows: CD45 inhibition, pNPP tyrosine phosphatase assay. The class given is biochemical. On the procedure:
as §1, §2

A further data set concerns the target T4, PTP-β (Homo sapiens, UniProt P23467).
T4 construct: purchased UBI #14-350
The data set can be described thus: PTP-β inhibition, pNPP tyrosine phosphatase assay. The class given is biochemical. The protocol: as §1, §2

T4 sequence (P23467 1643-1997 limits assumed): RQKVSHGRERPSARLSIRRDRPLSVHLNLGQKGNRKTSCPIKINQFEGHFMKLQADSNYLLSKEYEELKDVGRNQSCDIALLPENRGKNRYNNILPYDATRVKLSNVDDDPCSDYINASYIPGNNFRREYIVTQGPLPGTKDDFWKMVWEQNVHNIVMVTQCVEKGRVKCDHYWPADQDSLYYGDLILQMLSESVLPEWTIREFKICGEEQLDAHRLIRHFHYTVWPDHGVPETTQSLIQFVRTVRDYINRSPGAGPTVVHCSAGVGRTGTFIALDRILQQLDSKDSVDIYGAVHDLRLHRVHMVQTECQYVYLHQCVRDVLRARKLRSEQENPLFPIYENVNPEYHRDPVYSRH

Turning to `O=C(O)c1ccc(Cn2nc(-c3cccc(Oc4cccc(C(F)(F)F)c4)c3)sc2=Nc2ccc(Cl)c(Cl)c2)cc1` [Compound 187, 4-{2-(3,4-Dichloro-phenylimino)-5-[3{3-trifluoromethyl-phenoxy)-phenyl]-[1,3,4]thiadiaziol-3-ylmethyl}-benzoic acid], the concentration for half-maximal inhibition (IC50) against TC-PTP was determined as 1 µM; on PTP-1B, 1 µM; against CD-45, 5 µM; against PTP-β, 5 µM.
Regarding `C/C(=N\OCC(=O)O)c1cccc(Nc2nnc(-c3cccc(Oc4cccc(C(F)(F)F)c4)c3)s2)c1` [Compound 190, [1-(3-{5-[3-(3-Trifluoromethyl-phenoxy)-phenyl]-[1,3,4]thiadiazol-2-ylamino}-phenyl)-ethylideneaminooxy]acetic acid], the melting point was 220 °C (dec.). At PTP-1B, this compound yielded an IC50 of 5 µM.
In the case of `O=C(O)c1cccc(Oc2cccc(-c3nnc(Nc4ccc(Cl)c(Cl)c4)s3)c2)c1` [Example 7, (3-(3-{5[(3,4-dichlorophenyl)amino]-1,3,4-thiadiazol-2-yl}phenoxy)benzoic acid)], the melting point is 258 to 259 °C. On TC-PTP, it took 15 µM to reach half-maximal inhibition (IC50). Besides, the midpoint of inhibition against PTP-1B, the IC50, lay at 12 µM. Moreover, the IC50 against CD-45 was found to be 17 µM. The IC50 against PTP-β turned out to be 31 µM.
`Clc1ccc(Nc2nnc(-c3cccc(Oc4cccc(-c5nnn[nH]5)c4)c3)s2)cc1Cl` [Example 14, {5-[3-(3-(1H-1,2,3,4-tetraazol-5-yl)phenoxy)phenyl](1,3,4-thiadiazol-2-yl)}(3,4-dichlorophenyl)amine]: the IC50 came out at 12 µM at TC-PTP, 5 µM against PTP-1B, 10 µM against CD-45 and 24 µM against PTP-β.
In the case of `COc1cccc(-c2nn3cc(-c4ccc(-c5ccccc5)cc4)nc3s2)c1` [Example 16, (3-methoxy-1-(6-(4-phenylphenyl)imidazolo(2,1-b)1,3,4-thiadiazolin-2-yl)benzene)], the IC50 against PTP-1B is 12 µM; against CD-45, 30 µM; at PTP-β, more than 100 µM.
The compound `CCOc1cccc(-c2nnc(Nc3ccc(Br)c(Cl)c3)s2)c1` [Example 66, (4-bromo-3-chlorophenyl)[5-(3-ethoxyphenyl)(1,3,4-thiadiazol-2-yl)]amine] came in with a melting point of 204 to 205 °C. Moreover, inhibition on TC-PTP was half-maximal at 20 µM (IC50). The compound also yielded an IC50 at PTP-1B of 7 µM. For the same compound, the IC50 against CD-45 is 25 µM. At PTP-β, this compound returned an IC50 of more than 100 µM.
Consider `O=[N+]([O-])c1cccc(-c2nnc(Nc3cccc(Br)c3)s2)c1` [Example 80, (3-bromophenyl)[5-(3-nitrophenyl)(1,3,4-thiadiazol-2-yl)]amine], for which the IC50 is 14 µM and 8 µM at TC-PTP; 7 µM against PTP-1B; 80 µM against CD-45; more than 100 µM on PTP-β.
Turning to `Clc1cc(Nc2nnc(-c3cccc(Oc4ccccc4)c3)s2)ccc1Br` [Example 135], the IC50 against TC-PTP was 20 µM and 12 µM; at PTP-1B, 6 µM; against CD-45, 20 µM; at PTP-β, more than 100 µM.
Compound `O=C(O)c1ccc(CN(c2ccc(Cl)c(Cl)c2)c2nc(-c3ccc(-c4ccccc4)cc3)cs2)cc1` [Example 168, 4-({(3,4-dichlorophenyl)[4-(4-phenylphenyl)(1,3-thiazol-2-yl)]amino}methyl)benzoic acid.] displayed an IC50 against PTP-1B of 1 µM.
In turn, `O=C(O)C(=O)Nc1ccc(CN(c2ccc(Cl)c(Cl)c2)c2nnc(-c3cccc(Oc4cccc(C(F)(F)F)c4)c3)s2)cc1` [Example 169] displayed a melting point of 172 to 174 °C. The IC50 at PTP-1B was 1 µM.
As for `O=C(O)CCCn1nnnc1-c1cccc(Oc2cccc(-c3nnc(Nc4ccc(Cl)c(Cl)c4)s3)c2)c1` [Example 171], the melting point was 137 to 142 °C (dec.). On PTP-1B, half-maximal inhibition (IC50) was put at 2 µM.
Turning to `O=C(O)c1ccc(N/N=C/c2cccc(Oc3cccc(-c4nnc(Nc5ccc(Cl)c(Cl)c5)s4)c3)c2)cc1` [Example 172], the melting point is 259 to 262 °C. Further, the IC50 on TC-PTP was found to be 1.6 µM. Besides, inhibition on PTP-1B was half-maximal at 0.8 µM (IC50). On CD-45, this compound showed an IC50 of 14 µM. For the same compound, the IC50 against PTP-β turned out to be 30 µM.
